Measured values from paper PMC10175918 (Communications Biology, 2023).
Read-outs that look alike come from different tables or passages of the source.

Legend:
Assay in all cases: TGFα-shedding assay-based GPCR screening with chimeric Gα subunit proteins
Assay type in all cases: cell-based
[1] = molecular target: T1, 348 GPCRs (Homo sapiens, UniProt P59542); details: 10µM, Favipiravir 100μM
T1 construct: expressed in transfected cells; host or cells: HEK293A
T1 sequence (P59542 1-299): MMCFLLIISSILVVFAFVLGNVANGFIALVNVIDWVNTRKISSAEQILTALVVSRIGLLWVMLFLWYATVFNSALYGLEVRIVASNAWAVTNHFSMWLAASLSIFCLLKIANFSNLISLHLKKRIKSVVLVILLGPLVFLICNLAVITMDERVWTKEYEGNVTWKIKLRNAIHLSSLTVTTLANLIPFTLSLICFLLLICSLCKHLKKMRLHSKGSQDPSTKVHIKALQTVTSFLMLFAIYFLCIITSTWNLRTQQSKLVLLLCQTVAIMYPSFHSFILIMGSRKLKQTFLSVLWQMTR

[2] = molecular target: T2, 348 GPCRs (Homo sapiens, UniProt P47900); details: GPCR P2Y1 (purinergic receptor P2Y, G-protein coupled, 1)
T2 construct: expressed in transfected cells; host or cells: HEK293A
T2 sequence (P47900 whole entry): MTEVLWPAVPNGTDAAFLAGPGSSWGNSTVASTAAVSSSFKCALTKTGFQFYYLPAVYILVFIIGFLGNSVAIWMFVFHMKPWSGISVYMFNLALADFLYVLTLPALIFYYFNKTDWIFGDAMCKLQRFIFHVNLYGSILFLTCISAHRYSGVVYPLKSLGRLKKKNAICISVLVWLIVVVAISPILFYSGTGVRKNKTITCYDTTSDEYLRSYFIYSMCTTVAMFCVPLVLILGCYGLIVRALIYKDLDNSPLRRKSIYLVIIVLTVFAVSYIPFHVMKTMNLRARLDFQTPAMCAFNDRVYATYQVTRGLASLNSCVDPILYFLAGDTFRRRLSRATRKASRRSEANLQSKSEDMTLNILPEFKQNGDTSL

[3] = molecular target: T3, 348 GPCRs (Homo sapiens, UniProt Q9P296); details: 10µM, Favipiravir 100μM
T3 construct: expressed in transfected cells; host or cells: HEK293A
T3 sequence (Q9P296 whole entry): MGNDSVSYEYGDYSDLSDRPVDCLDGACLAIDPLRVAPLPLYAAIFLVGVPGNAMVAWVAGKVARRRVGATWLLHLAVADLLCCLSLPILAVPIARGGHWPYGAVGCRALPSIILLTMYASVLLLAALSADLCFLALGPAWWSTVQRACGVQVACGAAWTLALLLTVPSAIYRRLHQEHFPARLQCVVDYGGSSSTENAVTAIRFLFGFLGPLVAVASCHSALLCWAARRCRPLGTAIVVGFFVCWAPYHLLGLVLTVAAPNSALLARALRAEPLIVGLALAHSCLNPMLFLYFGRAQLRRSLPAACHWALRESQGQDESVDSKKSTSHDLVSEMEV

[4] = molecular target: T4, 348 GPCRs (Homo sapiens, UniProt O15218); details: 10µM, Favipiravir 100μM
T4 construct: expressed in transfected cells; host or cells: HEK293A
T4 sequence (O15218 whole entry): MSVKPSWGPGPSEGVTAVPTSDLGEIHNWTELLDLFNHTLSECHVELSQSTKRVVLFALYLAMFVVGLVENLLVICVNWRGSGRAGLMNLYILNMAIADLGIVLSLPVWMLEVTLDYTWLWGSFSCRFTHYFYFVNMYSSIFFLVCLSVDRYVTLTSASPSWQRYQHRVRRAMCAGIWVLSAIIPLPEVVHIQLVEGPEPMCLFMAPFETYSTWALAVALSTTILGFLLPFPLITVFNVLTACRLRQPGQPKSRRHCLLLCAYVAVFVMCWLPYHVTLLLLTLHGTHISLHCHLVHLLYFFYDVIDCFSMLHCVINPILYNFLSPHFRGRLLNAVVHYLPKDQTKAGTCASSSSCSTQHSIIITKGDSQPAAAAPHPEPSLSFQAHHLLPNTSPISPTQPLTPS

[5] = molecular target: T5, 348 GPCRs (Homo sapiens, UniProt O15552); details: 10µM, Favipiravir 100μM
T5 construct: expressed in transfected cells; host or cells: HEK293A
T5 sequence (O15552 1-330): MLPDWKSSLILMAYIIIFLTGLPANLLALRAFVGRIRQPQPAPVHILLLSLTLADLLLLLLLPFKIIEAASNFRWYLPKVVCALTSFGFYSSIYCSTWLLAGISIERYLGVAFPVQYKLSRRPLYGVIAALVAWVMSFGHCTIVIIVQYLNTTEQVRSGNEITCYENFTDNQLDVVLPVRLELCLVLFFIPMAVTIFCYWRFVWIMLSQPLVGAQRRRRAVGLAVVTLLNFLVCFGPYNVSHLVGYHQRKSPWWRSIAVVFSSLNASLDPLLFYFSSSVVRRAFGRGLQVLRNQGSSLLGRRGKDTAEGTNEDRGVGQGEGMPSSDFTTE

[6] = molecular target: T6, 348 GPCRs (Homo sapiens, UniProt Q9BXA5); details: 10µM, Favipiravir 100μM
T6 construct: expressed in transfected cells; host or cells: HEK293A
T6 sequence (Q9BXA5 1-334): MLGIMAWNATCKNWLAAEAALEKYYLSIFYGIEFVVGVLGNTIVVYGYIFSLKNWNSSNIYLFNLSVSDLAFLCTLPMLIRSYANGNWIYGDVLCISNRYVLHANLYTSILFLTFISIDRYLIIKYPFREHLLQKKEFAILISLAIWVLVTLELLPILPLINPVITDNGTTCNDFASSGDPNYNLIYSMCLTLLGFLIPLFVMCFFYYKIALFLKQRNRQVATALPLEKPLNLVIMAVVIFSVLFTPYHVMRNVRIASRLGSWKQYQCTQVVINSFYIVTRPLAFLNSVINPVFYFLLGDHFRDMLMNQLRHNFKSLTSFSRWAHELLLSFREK

[7] = molecular target: T7, 348 GPCRs (Homo sapiens, UniProt Q9UBS5); details: 10µM, Favipiravir 100μM
T7 construct: expressed in transfected cells; host or cells: HEK293A
T7 sequence (Q9UBS5 20-961): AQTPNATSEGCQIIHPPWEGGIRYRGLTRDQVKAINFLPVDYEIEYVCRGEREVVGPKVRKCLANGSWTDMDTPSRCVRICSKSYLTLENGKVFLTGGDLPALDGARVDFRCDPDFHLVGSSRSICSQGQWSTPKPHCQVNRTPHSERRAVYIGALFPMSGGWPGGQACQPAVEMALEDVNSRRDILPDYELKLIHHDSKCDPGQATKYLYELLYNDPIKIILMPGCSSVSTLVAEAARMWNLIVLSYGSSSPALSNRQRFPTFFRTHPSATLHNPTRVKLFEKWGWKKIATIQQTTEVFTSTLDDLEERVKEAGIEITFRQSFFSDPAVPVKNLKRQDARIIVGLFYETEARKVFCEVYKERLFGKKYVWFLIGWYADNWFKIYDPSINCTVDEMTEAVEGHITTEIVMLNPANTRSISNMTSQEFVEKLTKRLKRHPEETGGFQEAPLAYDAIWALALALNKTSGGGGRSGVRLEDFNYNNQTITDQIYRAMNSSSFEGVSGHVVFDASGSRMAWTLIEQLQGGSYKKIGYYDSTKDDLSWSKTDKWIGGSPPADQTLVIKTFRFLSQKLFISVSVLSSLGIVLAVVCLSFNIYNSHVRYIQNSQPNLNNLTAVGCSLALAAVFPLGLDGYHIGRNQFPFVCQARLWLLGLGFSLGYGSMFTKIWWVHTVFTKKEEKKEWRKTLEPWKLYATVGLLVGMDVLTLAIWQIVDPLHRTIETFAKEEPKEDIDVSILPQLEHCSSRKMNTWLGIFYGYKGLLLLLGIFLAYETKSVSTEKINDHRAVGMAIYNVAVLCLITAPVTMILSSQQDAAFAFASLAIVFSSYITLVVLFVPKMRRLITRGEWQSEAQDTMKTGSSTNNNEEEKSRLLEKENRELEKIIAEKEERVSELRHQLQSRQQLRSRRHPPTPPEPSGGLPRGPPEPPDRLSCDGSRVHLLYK

[8] = molecular target: T8, 348 GPCRs (Homo sapiens, UniProt O75473); details: 10µM, Favipiravir 100μM
T8 construct: expressed in transfected cells; host or cells: HEK293A
T8 sequence (O75473 22-907): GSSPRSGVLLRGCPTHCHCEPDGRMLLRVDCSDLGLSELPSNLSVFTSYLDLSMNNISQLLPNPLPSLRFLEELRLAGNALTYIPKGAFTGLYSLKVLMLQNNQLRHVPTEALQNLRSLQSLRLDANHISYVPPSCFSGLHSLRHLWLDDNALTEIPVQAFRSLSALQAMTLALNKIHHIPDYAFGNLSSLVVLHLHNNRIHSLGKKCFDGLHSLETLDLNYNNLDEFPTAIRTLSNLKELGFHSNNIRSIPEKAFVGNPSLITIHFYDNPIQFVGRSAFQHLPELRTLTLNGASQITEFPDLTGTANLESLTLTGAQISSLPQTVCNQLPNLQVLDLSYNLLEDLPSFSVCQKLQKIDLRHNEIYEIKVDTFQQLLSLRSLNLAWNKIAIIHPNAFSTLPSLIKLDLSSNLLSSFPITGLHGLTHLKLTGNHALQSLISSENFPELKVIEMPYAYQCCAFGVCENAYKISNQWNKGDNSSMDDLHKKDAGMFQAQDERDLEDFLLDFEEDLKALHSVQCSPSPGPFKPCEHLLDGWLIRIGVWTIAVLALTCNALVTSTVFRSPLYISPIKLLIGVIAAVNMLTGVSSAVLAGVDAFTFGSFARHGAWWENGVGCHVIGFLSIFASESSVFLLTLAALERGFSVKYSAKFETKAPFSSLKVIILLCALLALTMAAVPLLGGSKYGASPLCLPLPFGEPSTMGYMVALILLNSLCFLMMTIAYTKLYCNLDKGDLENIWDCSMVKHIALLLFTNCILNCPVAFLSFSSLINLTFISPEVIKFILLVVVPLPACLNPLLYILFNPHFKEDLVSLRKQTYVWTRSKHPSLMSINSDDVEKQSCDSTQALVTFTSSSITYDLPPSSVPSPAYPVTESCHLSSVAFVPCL

[9] = molecular target: T9, 348 GPCRs (Homo sapiens, UniProt O00155); details: 10µM, Favipiravir 100μM
T9 construct: expressed in transfected cells; host or cells: HEK293A
T9 sequence (O00155 whole entry): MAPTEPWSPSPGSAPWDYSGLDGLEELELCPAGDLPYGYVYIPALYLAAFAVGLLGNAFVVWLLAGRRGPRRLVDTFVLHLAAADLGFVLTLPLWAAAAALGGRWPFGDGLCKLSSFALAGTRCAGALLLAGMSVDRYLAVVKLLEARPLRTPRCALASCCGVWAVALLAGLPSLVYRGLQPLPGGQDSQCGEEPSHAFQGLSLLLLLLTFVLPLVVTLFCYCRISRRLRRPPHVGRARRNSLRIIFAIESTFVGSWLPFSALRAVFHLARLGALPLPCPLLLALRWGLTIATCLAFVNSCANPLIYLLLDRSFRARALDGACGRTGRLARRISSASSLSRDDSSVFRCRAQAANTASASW

[10] = TAS2R19 (taste receptor, type 2, member 19), read-out: % GPCR activation compared to TPA
[11] = GPR77 (complement component 5a receptor 2 (C5AR2)), read-out: % GPCR activation compared to TPA
[12] = GPR182 (G protein-coupled receptor 182), read-out: % GPCR activation compared to TPA
[13] = FFA2 (free fatty acid receptor 2), read-out: % GPCR activation compared to TPA
[14] = SUCNR1 (succinate receptor 1), read-out: % GPCR activation compared to TPA
[15] = GABBR1 (gamma-aminobutyric acid (GABA) B receptor, 1), read-out: % GPCR activation compared to TPA
[16] = LGR5 (leucine-rich repeat containing G protein-coupled receptor 5), read-out: % GPCR activation compared to TPA
[17] = GPR25 (G Protein-Coupled Receptor 25), read-out: % GPCR activation compared to TPA
[18] = read-out: % GPCR activation compared to TPA, TAS2R19 (taste receptor, type 2, member 19)
[19] = read-out: % GPCR activation compared to TPA, GPR77 (complement component 5a receptor 2 (C5AR2))
[20] = read-out: % GPCR activation compared to TPA, GPR182 (G protein-coupled receptor 182)
[21] = read-out: % GPCR activation compared to TPA, FFA2 (free fatty acid receptor 2)
[22] = read-out: % GPCR activation compared to TPA, SUCNR1 (succinate receptor 1)
[23] = read-out: % GPCR activation compared to TPA, GABBR1 (gamma-aminobutyric acid (GABA) B receptor, 1)
[24] = read-out: % GPCR activation compared to TPA, LGR5 (leucine-rich repeat containing G protein-coupled receptor 5)
[25] = read-out: % GPCR activation compared to TPA, GPR25 (G Protein-Coupled Receptor 25)

SMILES | activation at 100 µM [1, 10] [%] | activation at 100 µM [3, 11] [%] | activation at 100 µM [4, 12] [%] | activation at 10 µM [5, 13] [%] | activation at 10 µM [6, 14] [%] | activation at 100 µM [7, 15] [%] | activation at 100 µM [8, 16] [%] | activation at 100 µM [9, 17] [%] | % GPCR activation compared to TPA ([2]; 100μM) [%] | % GPCR activation compared to TPA ([2]; 10µM) [%] | activation at 100 µM [1, 18] [%] | activation at 100 µM [3, 19] [%] | activation at 100 µM [4, 20] [%] | activation at 10 µM [5, 21] [%] | activation at 10 µM [6, 22] [%] | activation at 100 µM [7, 23] [%] | activation at 100 µM [8, 24] [%] | activation at 100 µM [9, 25] [%]
NC(=O)c1nc(F)cnc1O [favipiravir, 6-fluoro-3-hydroxy-2-pyrazinecarboxamide] | -1.32 | 6.15 | -0.288 | -0.501 | -2.99 | -4.01 | -2.31 | -2.15 | 0.4296 | – | – | – | – | – | – | – | – | –
CCC(CC)COC(=O)[C@H](C)N[P@](=O)(OC[C@H]1O[C@@](C#N)(c2ccc3c(N)ncnn23)[C@H](O)[C@@H]1O)Oc1ccccc1 [remdesivir] | – | – | – | – | – | – | – | – | – | 11.0377 | 0.523 | 4.77 | 2.44 | -1.72 | -2.26 | -3.66 | 12.4 | -2.29
CC(C)OC(=O)[C@H](C)N[P@](=O)(OC[C@H]1O[C@@H](n2ccc(=O)[nH]c2=O)[C@](C)(F)[C@@H]1O)Oc1ccccc1 [sofosbuvir] | – | – | – | – | – | – | – | – | – | -4.632 | -0.561 | -3.7 | 0.0893 | 0.172 | -0.922 | -1.14 | -3.95 | -0.661

Second part, led by results:

activation at 100 µM [1, 10] [%] | activation at 100 µM [3, 11] [%] | activation at 100 µM [4, 12] [%] | activation at 10 µM [5, 13] [%] | activation at 10 µM [6, 14] [%] | activation at 100 µM [7, 15] [%] | activation at 100 µM [8, 16] [%] | activation at 100 µM [9, 17] [%] | % GPCR activation compared to TPA ([2]; 100μM) [%] | SMILES | % GPCR activation compared to TPA ([2]; 10µM) [%] | activation at 100 µM [1, 18] [%] | activation at 100 µM [3, 19] [%] | activation at 100 µM [4, 20] [%] | activation at 10 µM [5, 21] [%] | activation at 10 µM [6, 22] [%] | activation at 100 µM [7, 23] [%] | activation at 100 µM [8, 24] [%] | activation at 100 µM [9, 25] [%]
-0.28 | 2.65 | 0.124 | -2.64 | -1.18 | -3.77 | -2.87 | -1.73 | – | N#C[C@@]1(c2ccc3c(N)ncnn23)O[C@H](CO)[C@@H](O)[C@H]1O [GS441524] | -0.4592 | – | – | – | – | – | – | – | –
-0.811 | -1.07 | 0.0693 | -4.09 | -1.93 | -1.05 | -3.75 | -2.16 | – | CC(C)C(=O)OC[C@H]1O[C@@H](n2ccc(NO)nc2=O)[C@H](O)[C@@H]1O [molnupiravir] | -11.8258 | – | – | – | – | – | – | – | –
